Entries after “also recorded” stand apart in the source; their conditions may differ. Bridge positions count the residues as written; N and C are the ends. Ends that are not written are not given here.
Key:
hNav1.7 = target: T1, hNav1.7 (Homo sapiens, UniProt Q15858); experiment: Whole-cell patch clamp, hNav1.7 in HEK293T cells; type: cell-based
T1 construct: expressed in transfected cells; host or cells: HEK293T cells, transient transfection (Lipofectamine-2000)
Method: Figure 4 Effects of ISTX-I expressed in HEK293 cells. Current traces were evoked with a 50ms step depolarization to −10 mV from a holding potential of −80 mV every 5s. […] (E) Steady-state inactivation of the hNav1.7 channel before (solid circles) and after (open circles) the application of 10 μM ISTX-I (n = 5).
The effects of ISTX-I on the activation and inactivation kinetics of hNav1.7 were also analyzed. The current-voltage relationships were determined for Nav1.7 channels using step depolarization ranging from −80 to +40 mV from a holding potential of −80 mV.
(§1) HEK293T (human embryonic kidney) cells were grown in DMEM containing 10% heat-inactivated FBS at 37 °C in a 5% CO2 incubator. The cDNA genes encoding human (h)Nav1.1, (h)Nav1.2, (h)Nav1.3, (h)Nav1.4, (h)Nav1.5, (h)Nav1.6 and (h)Nav1.7 were transiently transfected into HEK293T cells for electrophysiology using Lipofectamine-2000 (Invitrogen) in serum-reduced medium (Opti-MEM, Invitrogen) following the manufacturer’s instructions. The auxiliary subunits hβ1 and enhanced green florescent protein plasmids were cotransfected into HEK293T cells to increase the current density and efficiently select cells with green florescent protein for whole-cell patch-clamp recordings. After 12 h, the HEK293T cells were used for electrophysiological analysis.
DRG neurons with a large diameter (>[…]) and those with a relatively small diameter (<[…]) were chosen by measuring TTX-s and TTX-r currents, respectively. Meanwhile, TTX (final concentration at 100 nM) was used to separate TTX-r sodium currents from TTX-s sodium currents. Suction pipettes (2.0–4.0 MΩ) were made of borosilicate glass capillary tubes with two-step pulling on a vertical micropipette puller (PC-10, Narishige). Potassium, calcium, and sodium currents were recorded in experimental cells using whole-cell patch-clamp recordings at room temperature, which were performed with an HEK EPC10 patch-clamp amplifier. The P/4 protocol was used to subtract linear capacitive and leakage currents. Experimental data were acquired and analyzed using the programs patch master and Sigmaplot 9.0 (Sigma, USA). All of the data points represent the mean ± SE (n = the number of separate experimental cells examined). Dose-response curves were fitted using the following Hill logistic equation: y = 1 − (1 − fmax)/[1 + ([Tx]/IC50)^n] in which n is an empirical Hill coefficient and fmax is the fraction of current resistant to inhibition at high toxin (Tx) concentrations.
Electrophysiological studies.
Currents were recorded from experimental cells using whole-cell patch clamptechnique at room temperature (22–25 °C). The patch pipettes were fabricated from borosilicate glass tubing using a two-stage vertical microelectrode puller (PC-10, Narishige, Japan). […]

sodium channels = experiment: Selectivity and mode of action on sodium channels, summary statements; type: cell-based
Method: Rat DRG cells were acutely dissociated from adult Sprague-Dawley rats[30]. Briefly, adult rats of either sex with body weights of approximately 200 g were killed by decapitation. The dorsal root ganglia were isolated quickly from the spinal cord and then transferred into Dulbecco’s modified Eagle’s medium (DMEM) containing trypsin I (0.15 mg/mL) and collagenase II (0.3 mg/mL) for incubation with an oscillation frequency of 200 rpm at 37 °C for 20 min. The trypsin inhibitor II-S (1 mg/mL) was added to terminate the reaction. The isolated DRG cells were split into 35 mm culture dishes with DMEM solution containing 10% fetal bovine serum (FBS) and were incubated in a CO2 incubator (5% CO2, 95% air, 37 °C) for 1–4 h before the patch-clamp experiment. […]
(§2) DRG neurons with a large diameter (>[…]) and those with a relatively small diameter (<[…]) were chosen by measuring TTX-s and TTX-r currents, respectively. […] Potassium, calcium, and sodium currents were recorded in experimental cells using whole-cell patch-clamp recordings at room temperature, which were performed with an HEK EPC10 patch-clamp amplifier. […] Experimental data were acquired and analyzed using the programs patch master and Sigmaplot 9.0 (Sigma, USA). […]
(§3) Currents were recorded from experimental cells using whole-cell patch clamptechnique at room temperature (22–25 °C). […]

hNav1.1 = experiment: Whole-cell patch clamp, hNav1.1 in HEK293T cells; type: cell-based, human; settings: 10 μM ISTX-I; 50 ms step to -10 mV from -80 mV
Method: as §1, §2, §3

[1] = 5 μM ISTX-I, step depolarization from −80 to +40 mV, holding −80 mV

T1 sequence (Q15858 whole entry): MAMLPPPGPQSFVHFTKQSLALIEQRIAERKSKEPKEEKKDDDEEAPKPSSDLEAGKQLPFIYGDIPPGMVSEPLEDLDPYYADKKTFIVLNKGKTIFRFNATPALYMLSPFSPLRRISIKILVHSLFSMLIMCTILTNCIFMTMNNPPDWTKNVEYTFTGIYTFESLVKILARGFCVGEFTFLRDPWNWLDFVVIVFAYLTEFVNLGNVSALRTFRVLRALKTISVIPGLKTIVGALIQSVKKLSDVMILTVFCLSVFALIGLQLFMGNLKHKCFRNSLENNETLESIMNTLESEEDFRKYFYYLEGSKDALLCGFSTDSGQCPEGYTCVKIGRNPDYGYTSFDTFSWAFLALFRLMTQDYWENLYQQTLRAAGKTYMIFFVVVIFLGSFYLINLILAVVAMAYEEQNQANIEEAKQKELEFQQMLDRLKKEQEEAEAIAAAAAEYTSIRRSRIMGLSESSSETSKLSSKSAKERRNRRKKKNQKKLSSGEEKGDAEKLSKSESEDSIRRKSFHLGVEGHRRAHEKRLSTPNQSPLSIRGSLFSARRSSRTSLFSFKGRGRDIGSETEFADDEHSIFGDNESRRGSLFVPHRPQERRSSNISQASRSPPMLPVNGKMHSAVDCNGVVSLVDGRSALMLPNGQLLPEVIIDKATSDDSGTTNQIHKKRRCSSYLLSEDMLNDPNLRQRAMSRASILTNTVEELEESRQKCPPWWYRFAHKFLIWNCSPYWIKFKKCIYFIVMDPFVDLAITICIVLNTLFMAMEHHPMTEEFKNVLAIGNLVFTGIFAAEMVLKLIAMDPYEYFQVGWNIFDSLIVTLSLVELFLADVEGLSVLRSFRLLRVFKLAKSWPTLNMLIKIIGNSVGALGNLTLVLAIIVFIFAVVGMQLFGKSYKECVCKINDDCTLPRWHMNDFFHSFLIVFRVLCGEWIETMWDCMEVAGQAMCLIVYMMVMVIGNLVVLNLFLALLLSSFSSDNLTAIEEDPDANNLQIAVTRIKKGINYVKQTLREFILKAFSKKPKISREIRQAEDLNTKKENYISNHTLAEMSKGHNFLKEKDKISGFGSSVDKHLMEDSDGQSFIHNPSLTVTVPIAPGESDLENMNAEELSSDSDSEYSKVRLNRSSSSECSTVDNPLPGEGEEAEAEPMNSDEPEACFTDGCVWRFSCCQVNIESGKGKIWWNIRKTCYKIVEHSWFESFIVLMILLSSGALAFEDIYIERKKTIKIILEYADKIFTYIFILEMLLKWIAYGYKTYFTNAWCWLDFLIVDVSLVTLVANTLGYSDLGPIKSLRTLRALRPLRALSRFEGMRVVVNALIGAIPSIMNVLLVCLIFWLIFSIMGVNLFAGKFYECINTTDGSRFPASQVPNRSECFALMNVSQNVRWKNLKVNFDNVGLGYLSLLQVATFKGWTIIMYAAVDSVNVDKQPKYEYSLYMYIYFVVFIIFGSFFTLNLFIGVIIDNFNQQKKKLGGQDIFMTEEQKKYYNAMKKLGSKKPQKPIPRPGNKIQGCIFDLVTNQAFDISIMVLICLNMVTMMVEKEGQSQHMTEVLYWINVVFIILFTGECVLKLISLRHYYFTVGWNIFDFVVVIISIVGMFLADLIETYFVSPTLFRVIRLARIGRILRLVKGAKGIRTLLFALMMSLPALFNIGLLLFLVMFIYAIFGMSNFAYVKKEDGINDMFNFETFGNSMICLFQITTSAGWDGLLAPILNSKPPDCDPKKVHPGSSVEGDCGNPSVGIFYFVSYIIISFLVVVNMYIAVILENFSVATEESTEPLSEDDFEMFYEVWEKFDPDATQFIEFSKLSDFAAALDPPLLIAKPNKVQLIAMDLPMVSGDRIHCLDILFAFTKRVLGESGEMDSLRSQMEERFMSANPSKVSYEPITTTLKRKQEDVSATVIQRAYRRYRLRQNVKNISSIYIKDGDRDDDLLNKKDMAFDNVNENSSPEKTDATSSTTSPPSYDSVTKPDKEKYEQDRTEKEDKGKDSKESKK
T1 sequence (Q07699 19-218, further chain): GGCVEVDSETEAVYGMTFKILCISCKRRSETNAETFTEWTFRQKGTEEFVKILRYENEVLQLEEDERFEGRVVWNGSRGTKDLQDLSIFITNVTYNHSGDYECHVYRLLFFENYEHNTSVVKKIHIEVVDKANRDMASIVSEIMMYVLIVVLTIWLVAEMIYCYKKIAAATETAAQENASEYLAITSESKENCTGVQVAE

Sequence: LCSENGDCAADECCVDTVFEGDMVTRSCEKTTGNFTECPGLTPIA (disulfide 2-14, 8-28, 13-38) [ISTX-I]
- effect on hNav1.7 channel currents (hNav1.7; 1 μM ISTX-I, 50 ms step to −10 mV from −80 mV every 5 s): significantly depressed; also recorded: Inhibition of hNav1.7
- shift of conductance–voltage (G-V) curve (hNav1.7; [1]): no effect; also recorded: did not shift
- shift of current-voltage (I-V) curve (hNav1.7; [1]): no effect; also recorded: did not shift
- shift of steady-state inactivation curve (hNav1.7; 10 μM ISTX-I, hNav1.7, n = 5): approximately −10 mV
- shift of I-V and G-V curves upon inhibition of sodium channels (summary) (sodium channels): without any shifts of the I-V and G-V curves
- sodium channel subtype selectivity (in words) (sodium channels): not other sodium channel subtypes; also recorded: specific activity on Nav1.7 subtypes; also recorded: subtype-selective inhibitor of Nav1.7
- effect on hNav1.1 (hNav1.1): no effect

Reference: paper PMC4942781, “A sodium channel inhibitor ISTX-I with a novel structure provides a new hint at the evolutionary link between two toxin folds” (Scientific Reports, 2016)
